Measured values: ChEMBL document CHEMBL1255199, “Endochin optimization: structure-activity and structure-property relationship studies of 3-substituted 2-methyl-4(1H)-quinolones with antimalarial activity” (J Med Chem, 2010)
Converted amounts (≈) assume the structure as drawn.

Legend:
[1] = Passive transcellular permeability of the compound at pH 4 by PAMPA; assay type: ADME; details: for Papp: read-out: permeability
[2] = Passive transcellular permeability of the compound at pH 7.4 by PAMPA; assay type: ADME; details: read-out: permeability
[3] = Lipophilicity, log D of the compound at pH 7.4; details: buffer
in vitro = details: mouse, J774 cells
Description: Cytotoxicity index, ratio of EC50 for mice (Mus musculus) J774 cells to EC50 for chloroquine, mefloquine, pyrimethamine and atovaquone-resistant Plasmodium falciparum TM90-C2B

Plasmodium falciparum [4] = experiment: Antimalarial activity against chloroquine, mefloquine, pyrimethamine and atovaquone-resistant Plasmodium falciparum TM90-C2B infected in human A+ erythrocytes after 72 hrs by SYBR Green I assay; assay type: functional, organism-based
Plasmodium falciparum [5] = experiment: Antimalarial activity against chloroquine and pyrimethamine-resistant Plasmodium falciparum W2 infected in human A+ erythrocytes after 72 hrs by SYBR Green I assay; assay type: functional, organism-based; details: W2, 72 h
physchem = details: aqueous, pH 7.4
Description: Aqueous solubility of the compound at pH 7.4 by HPLC analysis

J774 = experiment: Cytotoxicity against mouse J774 cells; assay type: cell-based
[6] = Half life in human liver microsomes; assay type: ADME, Microsome
[7] = Half life in mouse liver microsomes; assay type: ADME, Microsome

Structure (SMILES)	permeability [1] [×10⁻⁶ cm/s]	Papp [2] [×10⁻⁶ cm/s]	logD [3]	selectivity ratio (in vitro)	EC50 (Plasmodium falciparum [4]) [nM]	EC50 (Plasmodium falciparum [5]) [nM]	solubility (physchem) [µM]	EC50 (J774) [nM]	Papp [1] [×10⁻⁶ cm/s]	half-life [6] [min]	half-life [7] [min]
CCc1c(C)[nH]c2cc(OC)c(F)cc2c1=O	22.9	19.1	1.2	58.3	161	368	< 2	9400	–	–	–
CCc1c(C)[nH]c2cc(OC)c(Cl)cc2c1=O	–	57.3	2.43	689	27.6	48.2	10 (≈ 2.52 µg/mL)	19000	96.4	33.8	28.4
CCc1c(C)[nH]c2cc(OC)c(Br)cc2c1=O	–	75.1	1.7	> 933	36.3	179	2 (≈ 0.592 µg/mL)	> 33900	81.9	–	–
COc1cc2[nH]c(C)c(C)c(=O)c2cc1Cl	–	59.2	1.86	449	27.3	56.6	5 (≈ 1.19 µg/mL)	12200	37	–	–
COc1cc2[nH]c(C)c(C(C)C)c(=O)c2cc1Cl	–	187	2.84	112	194	112	> 20	21700	281	–	–
COc1cc2[nH]c(C)cc(=O)c2cc1Cl	–	25.2	1.95	> 24.1	1860	3180	2 (≈ 0.447 µg/mL)	> 44700	11.9	161	62.4
COc1cc2[nH]c(C)c(-c3ccccc3)c(=O)c2cc1Cl	–	48.3	1.65	> 2170	15.3	26.2	5 (≈ 1.5 µg/mL)	> 33400	105	128	21.3
COc1cc2[nH]c(C)c(-c3ccccc3)c(=O)c2cc1Br	–	330	2.2	> 1160	25	79.4	< 2	> 29100	306	–	–
CCCCCCCc1c(C)[nH]c2cc(OC)c(Cl)cc2c1=O	–	< 0.01	< 3.83	> 10500	2.95	12.3	< 2	> 37100	< 0.01	–	–
COc1cc2[nH]c(C)c(C3CCCCC3)c(=O)c2cc1Cl	1235.85	630	3.04	> 82.3	397	237	5 (≈ 1.53 µg/mL)	> 32700	–	–	–
C=C(CCCCC)c1c(C)[nH]c2cc(OC)c(Cl)cc2c1=O	–	755	3.58	1280	14.8	39.4	2 (≈ 0.64 µg/mL)	18900	768	–	–
COc1cc2[nH]c(C)c(/C=C/C(=O)OC(C)(C)C)c(=O)c2cc1Cl	–	261	1.81	> 533	53.6	61.7	5 (≈ 1.75 µg/mL)	> 28600	249	60.3	43.9
CCCCCCCc1c(C)nc2cc(OC)ccc2c1O	1019.9	679	3.69	> 747	46.6	8.59	2 (≈ 0.575 µg/mL)	> 34800	–	10.2	7.9
